Test results from patent publication US8986696B2, “Trans-capsular administration of p38 map kinase inhibitors into orthopedic joints” (DePuy Mitek, Inc., priority 2007, dated 2015).

Assays:
[1] = system: IL-1β-stimulated GAG release, bovine chondrocyte pellets / ARC tissues; assay: chondrocyte pellet culture model: GAG degradation; assay type: cell-based; settings: for inhibition of GAG degradation: ARC tissues stimulated with IL-1β; for GAG Release: Pellet Assay
In short: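 Bovine chondrocyte pellets (calf articular cartilage, 2–3 weeks culture) or ARC tissue punches pretreated with compounds for 1 h at 37° C, then 3–5 days with or without 10 ng/ml IL-1β; DMSO ≤1%. Medium GAG measured by dimethylmethylene blue absorbance at 525 nm against chondroitin sulfate; reported as μg/ml or % total GAG released.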

[2] = system: rabbit anterior cruciate ligament transection (ACLT) model of osteoarthritis; assay: ACLT model, therapeutic dosing regimen (Example IX); assay type: in vivo; settings: for Trochlear Groove Erosion of Cartilage / Tibial Plateau Presence of Clefts (Lateral) / Tibial Plateau Presence of Clefts (Medial) / Trochlear Groove Thickening / Femoral Condyle Presence of Clefts / Femoral Condyle % Surface Area Erosion (Lateral) / Femoral Condyle % Surface Area Erosion (Medial) / Tibial Plateau % Surface Area Erosion (Lateral) / Tibial Plateau % Surface Area Erosion (Medial) / Tibial Plateau # of Osteophytes (Lateral) / Tibial Plateau # of Osteophytes (Medial) / Trochlear Groove # of Osteophytes / Trochlear Groove Osteophyte Size / Femoral Condyle Depth of Erosion (Lateral) / Femoral Condyle Depth of Erosion (Medial) / Tibial Plateau Depth of Erosion (Lateral) / Tibial Plateau Depth of Erosion (Medial) / Combination Scores: All Trochlear Groove Effects / Combination Scores: All Condylar Effects / Combination Scores: All Tibial Plateau Effects / Combination Scores: All Cartilage Effects / Combination Scores: Total Score: Therapeutic Dosing Regimen; for Trochlear Groove Erosion of Cartilage / Tibial Plateau Presence of Clefts (Lateral) / Tibial Plateau Presence of Clefts (Medial) / Trochlear Groove Thickening / Femoral Condyle Presence of Clefts / Femoral Condyle % Surface Area Erosion (Lateral) / Femoral Condyle % Surface Area Erosion (Medial) / Tibial Plateau % Surface Area Erosion (Lateral) / Tibial Plateau % Surface Area Erosion (Medial) / Tibial Plateau # of Osteophytes (Lateral) / Tibial Plateau # of Osteophytes (Medial) / Trochlear Groove # of Osteophytes / Trochlear Groove Osteophyte Size / Femoral Condyle Depth of Erosion (Lateral) / Femoral Condyle Depth of Erosion (Medial) / Tibial Plateau Depth of Erosion (Lateral) / Tibial Plateau Depth of Erosion (Medial): mean gross score; for Trochlear Groove Erosion of Cartilage: 0 = 0, 1 < 25%, 2 = 25-50%, 3 > 50%; for Tibial Plateau Presence of Clefts (Lateral) / Tibial Plateau Presence of Clefts (Medial): 0 = Absent, 1 = Present; for Trochlear Groove Thickening: 0 = Normal, 1 = Thickened Areas; for Femoral Condyle Presence of Clefts: 0 = absent, 1 = unicondylar, 2 = both condyles; for Femoral Condyle % Surface Area Erosion (Lateral) / Femoral Condyle % Surface Area Erosion (Medial) / Tibial Plateau % Surface Area Erosion (Lateral) / Tibial Plateau % Surface Area Erosion (Medial): scale 0-5; for Tibial Plateau # of Osteophytes (Lateral) / Tibial Plateau # of Osteophytes (Medial) / Trochlear Groove # of Osteophytes / Trochlear Groove Osteophyte Size: scale 0 = 0; for Tibial Plateau # of Osteophytes (Lateral) / Tibial Plateau # of Osteophytes (Medial) / Trochlear Groove # of Osteophytes: 1 = 1, 2 = 2, 3 ≧ 2; for Trochlear Groove Osteophyte Size: 1 ≦ 1 mm, 2 = 1-2 mm, 3 > 2 mm; for Femoral Condyle Depth of Erosion (Lateral) / Femoral Condyle Depth of Erosion (Medial) / Tibial Plateau Depth of Erosion (Lateral) / Tibial Plateau Depth of Erosion (Medial): scale 0 = no damage to 3 = severe; for Combination Scores: All Trochlear Groove Effects / Combination Scores: All Condylar Effects / Combination Scores: All Tibial Plateau Effects / Combination Scores: All Cartilage Effects / Combination Scores: Total Score: mean; for Combination Scores: All Trochlear Groove Effects: 0-10, 10 = max damage; for Combination Scores: All Condylar Effects: 0-18, 18 = max damage; for Combination Scores: All Tibial Plateau Effects: 0-24, 24 = max damage; for Combination Scores: All Cartilage Effects: 0-40, 40 = max damage; for Combination Scores: Total Score: 0-52, 52 = max damage
Description: 130 Female New Zealand white rabbits underwent ACLT on the right knee. Intra-articular injections were administered to the operated knee once per week for five weeks beginning either one or six weeks after the ACLT. All animals were euthanized one week after the administration of the fifth injection. Gross observations were made on the knee joints according to a predetermined grading scale. The stifle joints were removed. Samples were preserved in 10% neutral buffered formalin. The stifle joints were photographed using high-resolution photography.
The ACLT was performed according to the ACLT model discussed above. Animals were group housed in pens on the floor and left untreated for six weeks to allow osteoarthritis to develop. Then, once weekly for five weeks, intra-articular injections were administered. One week following the last injection, the animals were sacrificed. The total in-life portion of this regimen was eleven weeks post-ACLT.
The study design consisted of an n=10 per group. A total of 160 μl was injected at each administration.
At the time of sacrifice the following parameters were evaluated grossly (the scale follows in parenthesis):
Each parameter was given a score. The combination of all parameters gave a Total Score (0-52). Additionally, combinations of the three subsets of data yielded scores for All Trochlear Groove Effects (0-10), All Condylar Effects (0-18) and All Tibial Plateau Effects (0-24). Lastly, an […] was obtained. The score for […] ranges from 0 to 40. The grades that compose this parameter are trochlear groove thickness and erosion, all the grades in All Condylar Effects, and all grades listed under Tibial Plateau. A higher score indicates more damage to the joint. A lower score indicates less damage or more cartilage preservation in the joint. Individual results for each parameter assessed were tabulated.

Row | Structure (SMILES) | inhibition of GAG degradation [1] | Trochlear Groove Erosion of Cartilage [2] | Tibial Plateau Presence of Clefts (Lateral) [2] | Tibial Plateau Presence of Clefts (Medial) [2] | Trochlear Groove Thickening [2] | Femoral Condyle Presence of Clefts [2] | Femoral Condyle % Surface Area Erosion (Lateral) [2] | Femoral Condyle % Surface Area Erosion (Medial) [2] | Tibial Plateau % Surface Area Erosion (Lateral) [2] | Tibial Plateau % Surface Area Erosion (Medial) [2] | Tibial Plateau # of Osteophytes (Lateral) [2] | Tibial Plateau # of Osteophytes (Medial) [2] | Trochlear Groove # of Osteophytes [2] | Trochlear Groove Osteophyte Size [2] | Femoral Condyle Depth of Erosion (Lateral) [2] | Femoral Condyle Depth of Erosion (Medial) [2] | Tibial Plateau Depth of Erosion (Lateral) [2] | Tibial Plateau Depth of Erosion (Medial) [2] | Combination Scores: All Trochlear Groove Effects [2] | Combination Scores: All Condylar Effects [2] | further results
1 | C[C@H](Nc1nccc(-c2c(-c3ccc(F)cc3)nc3nc(N)ccn23)n1)c1ccccc1 [JNJ 7583979 (RWJ 351958)] | significant effect |  |  |  |  |  |  |  |  |  |  |  |  |  |  |  |  |  |  |  | 
2 | CC(=O)N1CCN(c2c(-c3ccncc3)c(-c3ccc(F)cc3)c(C#N)n2C)CC1 [JNJ 17089540 (RWJ 669307)] | little effect | 1.6 | 0 | 0 | 0 | 0 | 1.1 | 0.4 | 1.4 | 0 | 0.7 | 1.5 | 3.0 | 3.0 | 1.1 | 0.2 | 1.2 | 0 | 7.6 | 2.8 | GAG Release [1]: No effect; Combination Scores: All Tibial Plateau Effects [2]: 4.8; Combination Scores: All Cartilage Effects [2]: 7.0; Combination Scores: Total Score [2]: 15.2; All Cartilage Effects, mean score ([2]; therapeutic dosing regimen): 7.0+1.0; all condylar effects, mean score ([2]; therapeutic dosing regimen): 2.8 ± 0.6; depth of the erosion on the lateral femoral condyle, mean score ([2]; therapeutic dosing regimen): 1.1 ± 0.4; depth of the erosion on the medial femoral condyle, mean score ([2]; therapeutic dosing regimen): 0.2 ± 0.1; percent surface area erosion of the lateral femoral condyle, mean score ([2]; therapeutic dosing regimen): 1.1 ± 0.4; percent surface area erosion of the medial femoral condyle, mean score ([2]; therapeutic dosing regimen): 0.4 ± 0.2; total score, mean ([2]; therapeutic dosing regimen): 15.2 ± 1.2
3 | OCCC#Cc1nc(-c2ccc(F)cc2)c(-c2ccncc2)n1CCCc1ccccc1 [JNJ 3026582 (RWJ 67657), 4-[4-(4-fluorophenyl)-1-(3-phenylpropyl)-5-(4-pyridinyl)-1H-imidazol-2-yl]-3-butyn-1-ol] | significant effect | 1.9 | 0 | 0 | 0.3 | 0 | 2.4 | 0.7 | 1.3 | 0.4 | 0.9 | 1.4 | 2.9 | 2.9 | 1.7 | 0.8 | 0.9 | 0.2 | 8.0 | 5.6 | Combination Scores: All Tibial Plateau Effects [2]: 5.3; Combination Scores: All Cartilage Effects [2]: 10.8; Combination Scores: Total Score [2]: 18.9
4 | CC(=O)Oc1cccc2c1C(=O)c1c(OC(C)=O)cc(C(=O)O)cc1C2=O [Diacerein, reference compound] |  |  |  |  |  |  |  |  |  |  |  |  |  |  |  |  |  |  |  |  | lowest concentration inhibiting proteoglycan degradation ([1]; 10 ng/ml IL-1β, five days): ≤ 0.054 µM
5 | CC(C(=O)O)c1ccc(C(=O)c2cccs2)cc1 (stereo not shown) [Suprofen, reference compound] |  | 1.9 | 0 | 0 | 0 | 0 | 1.3 | 0.3 | 1.6 | 0 | 0.8 | 1.6 | 3.0 | 3.0 | 1.3 | 0.2 | 1.4 | 0 | 7.9 | 3.0 | GAG Release [1]: No effect; Combination Scores: All Tibial Plateau Effects [2]: 5.4; Combination Scores: All Cartilage Effects [2]: 7.9; Combination Scores: Total Score [2]: 16.3; All Cartilage Effects, mean score ([2]; therapeutic dosing regimen): 7.9+1.5; all condylar effects, mean score ([2]; therapeutic dosing regimen): 3.0 ± 1.0; depth of the erosion on the lateral femoral condyle, mean score ([2]; therapeutic dosing regimen): 1.3 ± 0.4; depth of the erosion on the medial femoral condyle, mean score ([2]; therapeutic dosing regimen): 0.2 ± 0.1; percent surface area erosion of the lateral femoral condyle, mean score ([2]; therapeutic dosing regimen): 1.3 ± 0.4; percent surface area erosion of the medial femoral condyle, mean score ([2]; therapeutic dosing regimen): 0.3 ± 0.2
